The subject of series [1] is ALS caused by SOD1 mutations. The series can be described thus: randomized, double-blind placebo controlled phase II trial: efficacy (survival, ALSFRS-R, CAFS). Format: in vivo, human. The conditions noted are these: for participants alive (and without PAV or tracheostomy): at 12 months. The protocol: (§1) Provided herein are the details of a completed, randomized, double-blind placebo controlled phase II trial. The trial was conducted at two sites and three academic medical centers in the United States. An independent medical monitor completed regular review of laboratory reports and adverse events (AEs), as well as real-time review of serious adverse events (SAEs). Eligibility criteria (FIG. 1) aimed to enroll, from across the U.S. and Canada, a population relatively early in the course of ALS caused by SOD1 mutations associated with rapidly progressive disease.
Randomization (1:1 to Arimoclomol or matching placebo) was stratified by Riluzole use and in block size of two within each stratum, and implemented using a central web-based electronic data capture (EDC) system managed by the Neurological Clinical Research Institute Data Management Center at MGH. The randomization schedule, generated by a study statistician, was provided to each research pharmacy. At randomization, the EDC assigned a subject identification number, which the site-coordinator submitted to the research pharmacy for drug dispensing. Encapsulated placebo was matched in color and appearance to active drug. Except for the research pharmacists, pharmacy monitors, and study statisticians, all other personnel and study participants were blinded to treatment assignments.
The first participants were randomized and administered 100 mg of Arimoclomol three times daily. After enrollment of the first 16 participants (of whom 8 were on Arimoclomol, including 1 subject subsequently excluded per protocol), the dosage was increased to 200 mg administered three times daily for all active participants (which for the Arimoclomol group included three subjects initially started at 100 mg administered three times daily), and all newly enrolled participants received 200 mg three times a day. All data were analyzed following the intent-to-treat principle.
Assessments were performed in person only at Baseline and Month-2, with remote assessments planned for all other visits. Neurological examination, motor unit number estimation (MUNE), and slow vital capacity (SVC) could only be performed in person. Other assessments, conducted at all visits (in person and remotely), included: vital signs; blood and urine for safety labs; ALSFRS-R (revised ALS Functional Rating Scale), which has been validated for telephone administration; and the forced expiratory volume in 6-seconds (FEV6). Miano et al., Amyotrophic Lateral Sclerosis And Other Motor Neuron Disorders: Official Publication Of The World Federation Of Neurology, Research Group On Motor Neuron Diseases 2004; 5:235-239; Vandevoorde et al., Chest 2005; 127:1560-1564. In addition, AEs, concomitant medications, study drug dose management, use of ventilatory support, and key study events were recorded at all visits.
Operationalization of remote assessments posed logistical challenges that required the introduction of two innovative features: (1) the collection of vital signs and blood/urine for safety labs in participants' homes, this was accomplished using the services of a mobile medical provider; and (2) the use of FEV6 as the principal measure of respiratory function. The key advantage of FEV6 over SVC is that FEV6 may be self-administered by the participant using a low-cost portable device (e.g., Piko-6, nSpireHealth, Inc.). […] Use of the FEV6 allowed for remote assessment of respiratory function, which otherwise would not have been available for collection in this trial. Reproducibility and normative data for FEV6 are established. Hankinson et al., Chest 2003; 124:1805-1811.
For efficacy, the principal outcome measure was PAV- and tracheostomy-free survival time, calculated from baseline to PAV (defined as first of seven consecutive days when PAV was used >22 hours/day) or tracheostomy, date of death (if no PAV or tracheostomy), or date of last available follow-up/study contact (if still PAV- and tracheostomy-free by then). […]

The subject of series [2] is ALS caused by SOD1 mutations. Also noted: species or system human. The note with it: in vivo. The protocol: as §1
Randomization (1:1 to Arimoclomol or matching placebo) was stratified by Riluzole use and in block size of two within each stratum, and implemented using a central web-based electronic data capture (EDC) system managed by the Neurological Clinical Research Institute Data Management Center at MGH. The randomization schedule, generated by a study statistician, was provided to each research pharmacy. At randomization, the EDC assigned a subject identification number, which the site-coordinator submitted to the research pharmacy for drug dispensing. […]
The first participants were randomized and administered 100 mg of Arimoclomol three times daily. […] All data were analyzed following the intent-to-treat principle.
Assessments were performed in person only at Baseline and Month-2, with remote assessments planned for all other visits. […] In addition, AEs, concomitant medications, study drug dose management, use of ventilatory support, and key study events were recorded at all visits.
The primary endpoint of safety and tolerability was based on the frequency of AEs, abnormal vital signs, and abnormal laboratory studies above or below pre-defined alert levels. […] In summarizing AEs: (a) if a participant experienced multiple occurrences of the same event, only the occurrence with the worst severity (or highest degree of relatedness to study drug) was counted; and (b) CTCAE events were further classified into subgroups (“AE type”), e.g., pneumonia and bronchitis were both classified as upper/lower respiratory infection.

SMILES strings stand for the structures.

For the molecule `[O-][n+]1cccc(/C(Cl)=N/OC[C@H](O)CN2CCCCC2)c1` [Arimoclomol], the “CAFS potential treatment benefit vs placebo” value in series [1] (95% CI: −2.50 to 11.64) is 4.57 points. In addition, the “ALSFRS-R rate of decline, average (±SE)” value in series [1] (A4V subgroup) is reported as 2.6±0.5 points/month; in series [1] (all participants, mixed model), 2.5±0.4 points/month. For the same molecule, the “treatment difference in ALSFRS-R rate of decline vs placebo” value in series [1] (A4V subgroup, 95% CI: −0.28 to 2.24, p=0.12) turned out to be 0.98 points/month; in series [1] (all participants, 95% CI: −0.63 to 1.63, p=0.37) it was 0.5 points/month. The “win ratio, participant-to-participant comparison between the two groups” value in series [1] (CAFS) is 1.6924. In addition, the “unadjusted hazard ratio (HR), PAV- and tracheostomy-free survival” value in series [1] (Cox proportional hazards model, Arimoclomol compared to control, 95% CI: 0.29-1.48, p=0.33) is recorded as 0.67. The “hazard ratio (HR) adjusted for baseline ALSFRS-R and Riluzole” value in series [1] (Cox proportional hazards model, 95% CI: 0.32-1.80, p=0.55) came out at 0.77. In addition, in series [1] (Vonesh shared parameter model, 95% CI: −0.33 to 1.86, p=0.16), the “treatment difference in ALSFRS-R rate of decline, Vonesh model” value was 0.77±0.54 points/month. In addition, the “participants alive (and without PAV or tracheostomy)” value in series [1] (all participants, Kaplan-Meier) turned out to be 34%; in series [1] (subgroup of A4V participants), 29%. Also, the “direct effect of treatment on survival, Vonesh model” value in series [1] (p=0.62) is listed as “not significant”. The “CAFS rank score, average (±SE)” value in series [1] (rank scores range from 1 (worst) to 36 (best)) was determined as 20.9±2.5. Besides, the “ALSFRS-R difference over a one-year period” value in series [1] (translated from treatment difference of 0.5-1.0 points/month, not statistically significant) is on record as 6-12 points. For the same molecule, the “discontinuation because of adverse event” value in series [2] is “A single participant stopped Arimoclomol because of a skin rash”. Also, in series [2], the “relatedness of SAEs to study drug” value is “none of which were considered related to study drug”. Further, the “serious adverse events (SAEs) reported” value in series [2] turned out to be 7.

These data come from patent publication US20190175577A1, “METHOD FOR TREATING AMYOTROPHIC LATERAL SCLEROSIS” (UNIVERSITY OF MIAMI, priority 2017, published 2019).
